Experimental data reported in article PMC10618445, “Eucalyptus torquata L. flowers: a comprehensive study reporting their metabolites profiling and anti-gouty arthritis potential” (Scientific Reports, 2023).
One block for each compound: values may come before it.

Experiments:
[1] = DPPH radical scavenging assay; conditions: mean ± SD, triplicate
Procedure: DPPH radical scavenging, ABTS radical scavenging and FRAP assays were done according to Dudonne et al.[19] method minor modifications. The details are mentioned in the supplementary file. Briefly, 20 μL of the diluted concentrations of ETME/ standard (0.1575 - 1 mg/mL) were added to 200 μL of 2,2-diphenyl-1-picrylhydrazyl (DPPH) in a 96 well-plate and the absorbance was measured at 517 nm after incubation for 30 min [1] using ascorbic acid as standard. […] was determined using the equation; [(Ac – As) / Ac] × 100. In which, Ac was the control absorbance (DPPH solution without the tested sample) while As was the sample absorbance (DPPH solution in addition to the extract or standard).

[2] = Ferric reducing power assay (FRAP); conditions: mean ± SD, triplicate
Procedure: DPPH radical scavenging, ABTS radical scavenging and FRAP assays were done according to Dudonne et al.[19] method minor modifications. The details are mentioned in the supplementary file. The ferric reducing power of the extract was determined using the method reported previously by Dudonne, et al., 2009 [1]. The reduction is monitored by measuring the change of absorbance at 593 nm. […] A standard curve was prepared using various concentrations of FeSO4 .7H2O. All solutions were used on the day of preparation. A 100 µL of the sample solution and 300 μL of deionized water were added to 3 mL of freshly prepared FRAP reagent. The reaction mixture was incubated in a water bath for 30 min at 37 °C. The difference between sample absorbance and blank absorbance was calculated and used to calculate the FRAP value. All measurements were done in triplicate and the EC50 was calculated. Ascorbic acid is used as standard.

[3] = ABTS radical scavenging assay; conditions: mean ± SD, triplicate
Procedure: DPPH radical scavenging, ABTS radical scavenging and FRAP assays were done according to Dudonne et al.[19] method minor modifications. The details are mentioned in the supplementary file. Briefly, 200 µL of the reaction mixture containing 10 µL extract/ standard at different concentrations (0.1575 - 1 mg/mL) was added to 2,2′-Azino-bis(3-ethylbenzothiazoline-6-sulfonic acid (ABTS) solution (190 µL) then measured at 734 nm in 96 well-plates. The ABTS solution was composed as follows; 5 mL of 14 mM ABTS dissolved in methanol added to 5 mL solution of 4.9 mM potassium persulfate, and subsequently stored for 16 h at room temperature in dark. This solution was diluted with methanol till the absorbance was 0.700.

red blood cell membranes = assay: Membrane stabilization; format: cell-based; conditions: mean ± SD, triplicate
Procedure: (§1) Albumin denaturation inhibition was evaluated using the previously described method. Membrane stabilization and proteinase inhibitory potentials were evaluated using the previously reported method. Diclofenac was used as the reference drug. All the experiments were performed in triplicate.
Denaturation of tissue proteins is well documented in the pathogenesis of inflammatory events like arthritis. The protection against protein denaturation is one of NSAIDs mechanisms of action. In addition, red blood cell hemolysis inhibition may provide insights into the process of inflammation. Stabilization of the red blood cell membranes may delay or prevent the lysis and the consequent cytoplasmic contents release and the inflammatory response. So, plants that can interfere with these responses could be very useful for developing novel anti-arthritic drugs. Natural extracts from other Eucalyptus species produced similar albumin denaturation and cell membrane stabilization activities including E. obliqua leaves, E. sideroxylon bark[9] and E. globulus leaves.

protease = assay: Protease (proteinase) inhibitory activity; format: biochemical; conditions: mean ± SD, triplicate
Procedure: as §1

U937 human monocytes = assay: Histamine release inhibitory activity (PMA-treated cells, ELISA); format: cell-based; conditions: 20 nM PMA, 1 h, mean ± SD
Procedure: U937 human monocytes (ATCC, Manassas, VA, USA) were used to study the effect of the extract on histamine release. U937 cells (50,000 cells) were plated in a 96-well plate and treated with various concentration (1000–7.81 µg/mL) of the extract, in presence or absence of 20 nM phorbol myristate acetate (PMA) for 1 h. The cell culture supernatants collected from either untreated control or treated cultures were centrifuged at 10,000 g for 5 min at 4 °C and assessed for the released histamine by the commercially available ELISA kit. Diclofenac was used as the positive control.

5-lipoxygenase (5-LOX) = assay: 5-lipoxygenase inhibitory assay (lipoxygenase inhibitor screening kit); format: biochemical; conditions: mean ± SD, triplicate
Text: (§2) Methanol, DPPH (2,2-diphenyl-1-picrylhydrazyl), ABTS (2,2′-Azino-bis (3-ethylbenzothiazoline-6-sulfonic acid)), TPTZ (2,4,6-tri(2-pyridyl)-s-triazine), ascorbic acid, hyaluronic acid (human umbilical cord), sodium hydroxide, hyaluronidase (bovine testes), calcium chloride, p-dimethylaminobenzaldehyde (PDMAB), and sodium borate were purchased from Sigma-Aldrich (USA). COX (ovine) and LOX inhibitor screening assay kits (Cayman Chemical Company, MI, USA), 96-well cell culture plate (Corning Life Sciences, Lowell, MA, USA), PMA (Sigma-Aldrich, St. Luis, MO, USA), and histamine release assay kit (SPI-Bio, France) were used.
The COX inhibitory activity was assayed using Cayman colorimetric COX (ovine) inhibitor screening assay kit, according to the manufacturer’s instructions. The selectivity index (S.I.) was then calculated as IC50 (COX-1)/IC50 (COX-2). In vitro 5-lipoxygenase (5-LOX) inhibitory assay was carried out using lipoxygenase inhibitor screening assay kit, according to the manufacturer’s instructions. Diclofenac sodium was used as a reference drug.

tyrosinase = assay: Tyrosinase inhibition assay with L-DOPA as substrate; format: biochemical; conditions: mean ± SD
Procedure: Tyrosinase inhibition assay was performed with L-DOPA as substrate adopting the previously described method. Detailed procedures are described in the supplementary file.
Tyrosinase inhibition assay was performed with L-DOPA as substrate adopting the method reported in [3]. In a 96-plate, 685 μL of phosphate buffer (0.05 M, pH 6.5), 15 μL of tyrosinase enzyme (2500 U /mL), 200 μL of ETME (7.81–1000 µg/mL) and 100 μL of 5 mM/L L-DOPA were added. The absorbance was immediately monitored at 492 nm. Kojic acid was used as the positive control. The assay was made in triplicate. The percentage inhibition was calculated as follows: % of inhibition = (Acontrol/Atested sample)/ Acontrol) x 100. Where, Acontrol is the absorbance without the addition of the inhibitor and Asample is the absorbance after adding the standard.

xanthine oxidase (XO) = xanthine oxidase (XO) (Bos taurus, UniProt P80457); assay: Xanthine oxidase (XO) inhibitory activity; format: biochemical; conditions: mean ± SD, triplicate; read-out: Xanthine oxidase IC50/EC50 (converted)
xanthine oxidase (XO), sequence (P80457 whole entry): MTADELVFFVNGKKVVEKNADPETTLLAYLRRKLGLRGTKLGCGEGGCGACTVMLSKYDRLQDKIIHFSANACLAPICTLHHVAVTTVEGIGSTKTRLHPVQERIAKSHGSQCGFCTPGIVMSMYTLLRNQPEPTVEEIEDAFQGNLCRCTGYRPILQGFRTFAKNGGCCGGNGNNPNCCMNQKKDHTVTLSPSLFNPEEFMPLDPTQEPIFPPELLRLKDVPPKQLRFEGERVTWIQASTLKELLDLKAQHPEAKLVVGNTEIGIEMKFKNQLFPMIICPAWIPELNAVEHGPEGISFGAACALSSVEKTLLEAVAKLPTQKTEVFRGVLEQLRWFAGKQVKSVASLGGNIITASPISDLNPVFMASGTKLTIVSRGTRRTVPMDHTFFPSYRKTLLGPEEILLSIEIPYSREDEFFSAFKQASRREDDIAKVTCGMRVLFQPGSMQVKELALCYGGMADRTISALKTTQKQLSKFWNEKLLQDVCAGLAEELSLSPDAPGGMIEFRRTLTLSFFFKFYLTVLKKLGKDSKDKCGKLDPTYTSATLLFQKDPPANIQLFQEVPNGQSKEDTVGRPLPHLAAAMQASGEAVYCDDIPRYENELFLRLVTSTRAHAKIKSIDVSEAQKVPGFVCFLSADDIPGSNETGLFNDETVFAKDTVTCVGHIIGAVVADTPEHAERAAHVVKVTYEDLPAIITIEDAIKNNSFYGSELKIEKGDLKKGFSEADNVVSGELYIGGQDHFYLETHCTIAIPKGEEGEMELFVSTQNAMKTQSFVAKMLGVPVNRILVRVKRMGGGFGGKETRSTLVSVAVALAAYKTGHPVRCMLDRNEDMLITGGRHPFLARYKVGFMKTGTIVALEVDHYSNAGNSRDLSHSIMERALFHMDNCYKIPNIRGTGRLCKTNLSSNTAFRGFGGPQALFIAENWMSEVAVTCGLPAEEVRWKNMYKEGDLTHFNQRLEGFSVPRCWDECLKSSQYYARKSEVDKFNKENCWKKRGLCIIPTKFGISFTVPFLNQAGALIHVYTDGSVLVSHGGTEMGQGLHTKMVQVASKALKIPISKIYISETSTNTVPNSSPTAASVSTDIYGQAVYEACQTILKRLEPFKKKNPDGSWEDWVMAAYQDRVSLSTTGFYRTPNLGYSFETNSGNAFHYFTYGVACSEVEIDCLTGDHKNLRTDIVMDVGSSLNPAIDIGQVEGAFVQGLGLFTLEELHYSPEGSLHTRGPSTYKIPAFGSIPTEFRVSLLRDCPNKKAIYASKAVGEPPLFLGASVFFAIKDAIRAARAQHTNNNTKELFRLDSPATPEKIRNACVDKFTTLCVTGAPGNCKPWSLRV
Procedure: The XO inhibitory activity was assayed following the protocol reported in[22]. Detailed procedures are described in the supplementary file. The XO inhibitory activity was assayed following the protocol reported in [2]. Five hundred µL of different concentrations of ETME/ standard (10- 100 µg/mL) were added to the enzyme solution (1.3 mL of phosphate buffer at concentration of 65 mM and pH 7.4 containing 0.28 U/mL of XO). Then the mixture was incubated for 10 min at 30 ℃. Next, 1.4 mL of the substrate xanthine (0.6 mM) was added to the mixture. The absorbance was measured at every minute for 10 min at 295 nm. Allopurinol was used as the standard drug. The percentage inhibition of XO was calculated as: % inhibition = (1 – Absorbance of sample/ Absorbance of blank) x 100. The IC50 value was calculated from the calibration curve.

[4] = test system: hyaluronidase (bovine testes); assay: Hyaluronidase inhibitory activity; format: biochemical; conditions: mean ± SD, triplicate
Text: as §2
Hyaluronidase inhibitory activity of ETME was evaluated spectrophotometrically as reported by Perera et al.[24] with minor modifications. Detailed procedures are described in the supplementary file.
Hyaluronidase inhibitory activity of ETME was evaluated spectrophotometrically as reported by Perera et al., 2018 with minor modifications. […]. The percentage of enzyme inhibition was calculated as follows:
% of inhibition = (Acontrol/Atested sample)/ Acontrol) x 100.
Where Acontrol is the absorbance without addition of the inhibitor and Asample is the absorbance after adding the extract/standard. The IC50 value, the concentration giving 50% inhibition of hyaluronidase activity, was determined by interpolation using the concentration-response curves. […]

DPPH IC50/EC50 [1]: 2.2 ± 1.6 µg/mL
FRAP IC50/EC50 [2]: 3.9 ± 1.9 µg/mL
ABTS IC50/EC50 [3]: 21.4 ± 1.6 µg/mL
SMILES: O=C1O[C@H]([C@@H](O)CO)C(O)=C1O [Ascorbic acid, ascorbic acid]

LOX IC50/EC50 (5-lipoxygenase (5-LOX)): 23.4 ± 0.83 µg/mL
SMILES: COc1ccc2c(c1)c(CC(=O)O)c(C)n2C(=O)c1ccc(Cl)cc1 [Indomethacin]

Tyrosinase IC50/EC50 (tyrosinase): 52.0 ± 0.98 µg/mL
SMILES: O=c1cc(CO)occ1O [Kojic acid]

IC50 (xanthine oxidase (XO)): 96.6 µM
SMILES: O=c1[nH]c(=O)c2c[nH]nc2[nH]1 [Oxypurinol]

The next lines start with the compound.

SMILES: O=C(O)Cc1ccccc1Nc1c(Cl)cccc1Cl [Diclofenac]
Membrane stabilization IC50/EC50 (red blood cell membranes): 17.02 ± 1.3 µg/mL
Protease IC50/EC50 (protease): 25.14 ± 1.2 µg/mL
Histamine release IC50/EC50 (U937 human monocytes): 17.94 ± 1.4 µg/mL

SMILES: O=C([O-])CC([S-])C(=O)[O-].[Au+].[Na+].[Na+] (stereo not shown) [Sodium aurothiomalate]
Hyaluronidase IC50/EC50 [4]: 20.03 ± 0.96 µg/mL
